Measured values reported in PubChem BioAssay AID180 (DTP/NCI, 2004).
Where “and” joins values, the source holds several entries; their conditions need not be identical. Equal values may be shown once.

Test system: BDF1 mice, Adenocarcinoma 755 s.c., tumor weight T/C
Experiment: NCI In Vivo Anticancer Drug Screen. Data for tumor model Adenocarcinoma 755 (subcutaneous) in B6D2F1 (BDF1) mice
Details: endpoint: mean tumor weight, higher = larger tumour
Method in brief: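 Tumor-bearing mice receive test compound while controls get vehicle alone. Antitumor effect is scored from survival or tumor dimensions as a T/C quotient.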

[1] = dose: 15.0 mg/kg/injection, schedule: Q01DX011 (ip), vehicle: methylcellulose (MC)
[2] = dose: 31.0 mg/kg/injection, schedule: Q01DX011 (ip), vehicle: methylcellulose (MC)
[3] = dose: 62.0 mg/kg/injection, schedule: Q01DX011 (ip), vehicle: methylcellulose (MC)
[4] = dose: 125.0 mg/kg/injection, schedule: Q01DX011 (ip), vehicle: methylcellulose (MC)
[5] = dose: 250.0 mg/kg/injection, schedule: Q01DX011 (ip), vehicle: methylcellulose (MC)

## CC(=O)O[C@]1(C(C)=O)CC[C@H]2[C@@H]3C[C@H](C)C4=CC(=O)CC[C@]4(C)[C@H]3CC[C@@]21C
dose: 100.0 mg/kg/injection, schedule: Q01DX011 (sc), vehicle: steriod suspending solution
  T/C: 89 % of control
dose: 300.0 mg/kg/injection, schedule: Q01DX011 (sc), vehicle: steriod suspending solution
  T/C: 78 % of control

## O=P(Oc1ccccc1)(OP(=O)(Oc1ccccc1)N(CCCl)CCCl)N(CCCl)CCCl (stereo unspecified)
dose: 25.0 mg/kg/injection, schedule: Q01DX011 (ip), vehicle: other
  T/C: 82 % of control
dose: 50.0 mg/kg/injection, schedule: Q01DX011 (ip), vehicle: other
  T/C: 66 % of control

## CSc1ncc(C)c(=O)[nH]1
[1]
  T/C: 113 % of control
[2]
  T/C: 124 % of control
[3]
  T/C: 99 % of control

## S=P(Oc1ccccc1)(N1CC1)N1CC1
dose: 55.0 mg/kg/injection, schedule: Q01DX011 (ip), vehicle: methylcellulose (MC)
  T/C: 22 % of control and 42 % of control and 44 % of control
dose: 220.0 mg/kg/injection, schedule: Q01DX011 (ip), vehicle: methylcellulose (MC)
  T/C: 20 % of control

## C[C@]12CC[C@H](O)C[C@@H]1CC[C@@H]1[C@@H]2C(=O)C[C@]2(C)C3=CC(=O)O[C@H]3C[C@@H]12
dose: 5.0 mg/kg/injection, schedule: Q01DX011 (sc), vehicle: steriod suspending solution
  T/C: 73 % of control
dose: 10.0 mg/kg/injection, schedule: Q01DX011 (sc), vehicle: steriod suspending solution
  T/C: 69 % of control
dose: 20.0 mg/kg/injection, schedule: Q01DX011 (sc), vehicle: steriod suspending solution
  T/C: 74 % of control
dose: 40.0 mg/kg/injection, schedule: Q01DX011 (sc), vehicle: steriod suspending solution
  T/C: 77 % of control

## Nc1ncnc2c1ncn2C(C=O)OC(C=O)CO (stereo unspecified)
dose: 15.0 mg/kg/injection, schedule: Q01DX011 (ip), vehicle: carboxymethylcellulose (CMC)
  T/C: 93 % of control

## Cc1ccc(CSc2nc(N)nc3nc[nH]c23)cc1C
dose: 31.25 mg/kg/injection, schedule: Q01DX011 (ip), vehicle: methylcellulose (MC)
  T/C: 37 % of control
dose: 62.5 mg/kg/injection, schedule: Q01DX011 (ip), vehicle: methylcellulose (MC)
  T/C: 33 % of control
[4]
  T/C: 15 % of control
[5]
  T/C: 1 % of control and 7 % of control
dose: 350.0 mg/kg/injection, schedule: Q01DX011 (ip), vehicle: methylcellulose (MC)
  T/C: 5 % of control

## CCCCCn1cnc2c(SCc3ccccc3)nc(N)nc21
dose: 37.5 mg/kg/injection, schedule: Q01DX011 (ip), vehicle: saline
  T/C: 68 % of control
dose: 75.0 mg/kg/injection, schedule: Q01DX011 (ip), vehicle: saline
  T/C: 78 % of control
dose: 150.0 mg/kg/injection, schedule: Q01DX011 (ip), vehicle: saline
  T/C: 77 % of control

## O=C(Nc1ccc(N=Nc2ccc(O)c(C(=O)O)c2)c(S(=O)(=O)O)c1)c1ccc(C(=O)Nc2ccc(N=Nc3ccc(O)c(C(=O)O)c3)c(S(=O)(=O)O)c2)cc1
dose: 30.0 mg/kg/injection, schedule: Q01DX011 (ip), vehicle: carboxymethylcellulose (CMC)
  T/C: 82 % of control
dose: 60.0 mg/kg/injection, schedule: Q01DX011 (ip), vehicle: carboxymethylcellulose (CMC)
  T/C: 64 % of control
dose: 120.0 mg/kg/injection, schedule: Q01DX011 (ip), vehicle: carboxymethylcellulose (CMC)
  T/C: 70 % of control
dose: 240.0 mg/kg/injection, schedule: Q01DX011 (ip), vehicle: carboxymethylcellulose (CMC)
  T/C: 42 % of control

## Clc1ncnc2c1ncn2C1CCCCO1 (stereo unspecified)
dose: 31.0 mg/kg/injection, schedule: Q01DX011 (ip), vehicle: other
  T/C: 72 % of control
dose: 62.0 mg/kg/injection, schedule: Q01DX011 (ip), vehicle: other
  T/C: 7 % of control

## CSc1ncc(Br)c(Nc2ccccc2C)n1
[1]
  T/C: 94 % of control
[2]
  T/C: 87 % of control
[3]
  T/C: 110 % of control
[4]
  T/C: 117 % of control
[5]
  T/C: 107 % of control

## CC1CN1P(=O)(Oc1ccccc1)N1CC1C (stereo unspecified)
dose: 12.5 mg/kg/injection, schedule: Q01DX011 (ip), vehicle: saline
  T/C: 89 % of control and 106 % of control
dose: 25.0 mg/kg/injection, schedule: Q01DX011 (ip), vehicle: saline
  T/C: 90 % of control and 78 % of control
dose: 50.0 mg/kg/injection, schedule: Q01DX011 (ip), vehicle: saline
  T/C: 42 % of control and 50 % of control

## O=S(=O)(OCCCl)OCCCl
dose: 12.5 mg/kg/injection, schedule: Q01DX011 (ip), vehicle: olive oil, sesame oil, peanut oil
  T/C: 109 % of control
dose: 25.0 mg/kg/injection, schedule: Q01DX011 (ip), vehicle: olive oil, sesame oil, peanut oil
  T/C: 86 % of control

## Cn1c[n+](C2OC(CO)C(O)C2O)c2nc([O-])[nH]c(=O)c21 (stereo unspecified)
dose: 25.0 mg/kg/injection, schedule: Q01DX011 (ip), vehicle: methylcellulose (MC)
  T/C: 65 % of control
dose: 75.0 mg/kg/injection, schedule: Q01DX011 (ip), vehicle: methylcellulose (MC)
  T/C: 103 % of control
dose: 225.0 mg/kg/injection, schedule: Q01DX011 (ip), vehicle: methylcellulose (MC)
  T/C: 44 % of control
